Target: Zinc finger protein Helios (Homo sapiens) (UniProt Q9UKS7)
Experiment: Induction of IKZF2 degradation in human GripTite 293 MSR cells at 30 uM incubated for 24 hrs by PathHunter assay relative to control
Type: cell-based

Sequence of Zinc finger protein Helios (Homo sapiens) (Q9UKS7 whole entry): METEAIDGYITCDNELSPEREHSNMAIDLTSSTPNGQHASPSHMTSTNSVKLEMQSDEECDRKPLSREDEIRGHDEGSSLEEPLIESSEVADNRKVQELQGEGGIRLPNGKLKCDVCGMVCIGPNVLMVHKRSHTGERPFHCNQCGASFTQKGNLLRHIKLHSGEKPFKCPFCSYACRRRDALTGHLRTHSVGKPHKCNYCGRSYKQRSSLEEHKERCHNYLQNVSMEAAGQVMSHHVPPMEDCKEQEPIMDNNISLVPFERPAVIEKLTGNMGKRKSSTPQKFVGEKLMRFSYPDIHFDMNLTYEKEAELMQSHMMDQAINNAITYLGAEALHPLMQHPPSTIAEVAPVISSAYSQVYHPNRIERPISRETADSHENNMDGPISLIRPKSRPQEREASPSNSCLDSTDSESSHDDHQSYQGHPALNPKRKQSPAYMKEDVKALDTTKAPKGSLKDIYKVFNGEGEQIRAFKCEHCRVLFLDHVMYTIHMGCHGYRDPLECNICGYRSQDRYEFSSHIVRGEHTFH

| SMILES | Activity [%] |
| --- | --- |
| CC1CC(c2ccc3c(c2)CN(C2CCC(=O)NC2=O)C3=O)CC(C)N1Cc1ccccc1 (configuration not stated) | 35 |
| CC1CC(c2ccc3c(c2)CN(C2CCC(=O)NC2=O)C3=O)CC(C)N1 (configuration not stated) | 30 |
